≈ marks a conversion by molar mass, not a printed value.

The nature of series [1]: Dissolution of linerixibat tablets (USP <711> Apparatus II). The format is physicochemical. Conditions: at both gastric and intestinal pH (pH 1.2 and pH 6.8). How it is done:
The dissolution procedure developed for Linerixibat Tablets, 40 mg, is determined as directed in USP<711> and the method parameters are presented in Table G. The percentage of dissolved drug is currently determined by gradient reversed-phase HPLC.
The above dissolution method at pH 6.8 was applied to two batches of Linerixibat Tablets, 40 mg and the profiles obtained are shown in FIG. 24.

Series [2] in a line: Solubility of linerixibat drug substance over pH 1.2-6.8 at 37±1° C. (Experiment 8a). Format: physicochemical. As to the method:
The solubility of linerixibat drug substance, in respect of Form I and Form III, was determined over the pH range of 1.2-6.8 at 37±1° C. Eight pH values within this range, including buffers at pH 1.2, 4.5 and 6.8 were evaluated. The therapeutic dose for linerixibat is 40 mg.
• SGF=simulated gastric fluid • BR=Britton Robinson

Series [3] in a line: Systemic absorption of linerixibat. Conditions: in vivo.
Series [4] can be described thus: Miniaturised shake flask solubility in Britton-Robinson buffers and biorelevant media (Experiment 8c). The format is physicochemical. Conditions: 37° C., 1, 4 and 24 hours; FIG. 25. How it is done: Solubility of Form I and Form III was also measured in Britton-Robinson buffers (pH 2-8), determined and compared using a standardised miniaturised shake flask method via an automated platform using a development HPLC method for quantification post centrifugation and filtration. Samples were run at 37° C. and performed as 2 replicate preparations for each pH condition and 4 replicate preparations for each biorelevant media condition at 1, 4 and 24 hours.

A short description of series [5]: Solubility of drug substance samples in biorelevant media and sodium acetate buffer (Experiment 8b). Format: physicochemical. From the text:
Solubility data was obtained for drug substance samples of linerixibat Form I, linerixibat Form III, and additionally for a sample of Form I compressed to 100 MPa which therefore contained an amount of Form III, in order to replicate typical forces encountered during tablet manufacture.
The media used for the drug substance samples were biorelevant media likely to be experienced in the stomach and the intestine, namely Simulated Gastric Fluid (SGF) over an increasing pH range (1.6, 2.0 and 4.0) and Fasted State Simulated Intestinal Fluid (FaSSIF) at a pH of 6.5. Solubility data was also obtained in 50 mM sodium acetate buffer pH 4.5.

Series [6] can be described thus: Storage stability of drug substance by HPLC, XRPD and SSNMR. Format: physicochemical. Conditions: 1 month of storage at 50° C./ambient RH.

One may read the Solubility as the dissolved amount per volume that the medium holds. Regarding `CCCC[C@]1(CC)CS(=O)(=O)c2cc(CNC(CC(=O)O)CC(=O)O)c(OC)cc2[C@@H](c2ccccc2)N1` [linerixibat, 3-({[(3R,5R)-3-butyl-3-ethyl-7-(methyloxy)-1,1-dioxido-5-phenyl-2,3,4,5-tetrahydro-1,4-benzothiazepin-8-yl]methyl}amino)pentanedioic acid], the “time to full release” value in series [1] came to 5 min. Further, the Solubility in series [2] (buffer, 37 °C, pH 1.2, simulated gastric fluid, thermodynamic from solid, pH 1.2 (gastric pH), read-out: solubility) is over 1000 µg/mL; in series [2] (buffer, 37 °C, pH 6.8, aqueous buffer, thermodynamic from solid, pH 6.8 (intestinal pH), read-out: solubility), over 1000 µg/mL. Further, the systemic absorption result in series [3] is given as “minimal systemic absorption”.
As a reminder, the solubility is the concentration that dissolves in the medium under given conditions. Lower therefore signals little dissolved substance. Take `CCCC[C@]1(CC)CS(=O)(=O)c2cc(CNC(CC(=O)O)CC(=O)O)c(OC)cc2[C@@H](c2ccccc2)N1` [Form III]: the “solubility comparison in biorelevant media” value in series [4] is “very similar”. Also, the Solubility turned out to be 290 µg/mL (≈ 530 µM) in series [5] (50 mM Sodium Acetate Buffer pH 4.5, 1 Hour, listed as Form 3); 290 µg/mL (≈ 530 µM) in series [5] (50 mM Sodium Acetate Buffer pH 4.5, 4 Hours, listed as Form 3); 280 µg/mL (≈ 512 µM) in series [5] (50 mM Sodium Acetate Buffer pH 4.5, 24 Hours, listed as Form 3); 5200 µg/mL (≈ 9510 µM) in series [5] (FaSSIF pH 6.5, 1 Hour, listed as Form 3); 5310 µg/mL (≈ 9710 µM) in series [5] (FaSSIF pH 6.5, 4 Hours, listed as Form 3); 5320 µg/mL (≈ 9730 µM) in series [5] (FaSSIF pH 6.5, 24 Hours, listed as Form 3). Besides, the Solubility worked out at 7540 µg/mL (≈ 13800 µM) in series [5] (SGF pH 1.6, 1 Hour, listed as Form 3); 7900 µg/mL (≈ 14500 µM) in series [5] (SGF pH 1.6, 4 Hours, listed as Form 3); 8620 µg/mL (≈ 15800 µM) in series [5] (SGF pH 1.6, 24 Hours, listed as Form 3); 1490 µg/mL (≈ 2730 µM) in series [5] (SGF pH 2.0, 1 Hour); 1580 µg/mL (≈ 2890 µM) in series [5] (SGF pH 2.0, 4 Hours, listed as Form 3); 1700 µg/mL (≈ 3110 µM) in series [5] (SGF pH 2.0, 24 Hours, listed as Form 3). The Solubility is 160 µg/mL (≈ 293 µM) in series [5] (SGF pH 4.0, 1 Hour, listed as Form 3); 170 µg/mL (≈ 311 µM) in series [5] (SGF pH 4.0, 4 Hours, listed as Form 3); 190 µg/mL (≈ 348 µM) in series [5] (SGF pH 4.0, 24 Hours, listed as Form 3); over 1000 µg/mL in series [2] (nominal pH 1.2, SGF, 37° C., 1-hr timepoint); over 1000 µg/mL in series [2] (nominal pH 1.2, SGF, 37° C., 4-hr timepoint); over 1000 µg/mL in series [2] (nominal pH 1.2, SGF, 37° C., 24-hr timepoint). Also, the Solubility in series [2] (nominal pH 3.0, BR buffer, 37° C., 1-hr timepoint) stood at 166 µg/mL (≈ 304 µM); in series [2] (nominal pH 3.0, BR buffer, 37° C., 4-hr timepoint), 205 µg/mL (≈ 375 µM); in series [2] (nominal pH 3.0, BR buffer, 37° C., 24-hr timepoint), 238 µg/mL (≈ 435 µM); in series [2] (nominal pH 3.5, BR buffer, 37° C., 1-hr timepoint), 103 µg/mL (≈ 188 µM); in series [2] (nominal pH 3.5, BR buffer, 37° C., 4-hr timepoint) it was 122 µg/mL (≈ 223 µM); in series [2] (nominal pH 3.5, BR buffer, 37° C., 24-hr timepoint), 130 µg/mL (≈ 238 µM). Further, the Solubility in series [2] (nominal pH 4.0, BR buffer, 37° C., 1-hr timepoint) is 119 µg/mL (≈ 218 µM); in series [2] (nominal pH 4.0, BR buffer, 37° C., 4-hr timepoint), 137 µg/mL (≈ 251 µM); in series [2] (nominal pH 4.0, BR buffer, 37° C., 24-hr timepoint), 147 µg/mL (≈ 269 µM); in series [2] (nominal pH 4.5, Acetate buffer, 37° C., 1-hr timepoint), 199 µg/mL (≈ 364 µM); in series [2] (nominal pH 4.5, Acetate buffer, 37° C., 4-hr timepoint), 252 µg/mL (≈ 461 µM); in series [2] (nominal pH 4.5, Acetate buffer, 37° C., 24-hr timepoint) it was 310 µg/mL (≈ 567 µM). The Solubility in series [2] (nominal pH 5.0, BR buffer, 37° C., 1-hr timepoint) is 342 µg/mL (≈ 626 µM); in series [2] (nominal pH 5.0, BR buffer, 37° C., 4-hr timepoint), 466 µg/mL (≈ 852 µM); in series [2] (nominal pH 5.0, BR buffer, 37° C., 24-hr timepoint) it was 620 µg/mL (≈ 1130 µM); in series [2] (nominal pH 6.8, Phosphate buffer, 37° C., 1-hr timepoint), over 1000 µg/mL; in series [2] (nominal pH 6.8, Phosphate buffer, 37° C., 4-hr timepoint) it was over 1000 µg/mL; in series [2] (nominal pH 6.8, Phosphate buffer, 37° C., 24-hr timepoint) it was over 1000 µg/mL. The “solubility comparison of the forms” value in series [5] (all investigated physiologically relevant pH values (1.6 to 6.5)) was “Forms I and III have very similar solubilities at all investigated physiologically”. Also, in series [6], the “change of form or drug-related impurity content” value is given as “Laboratory isolated Form III drug substance demonstrated no change in form”. In series [2] (Britton Robinson buffer, 37 °C, pH 3.7, aqueous buffer, thermodynamic from solid, nominal pH 3.7, BR buffer, 1-hr timepoint), this molecule gave a solubility at 1 h of 104 µg/mL (≈ 190 µM). The molecule further returned a solubility at 4 h in series [2] (Britton Robinson buffer, 37 °C, pH 3.7, aqueous buffer, thermodynamic from solid, nominal pH 3.7, BR buffer, 4-hr timepoint) of 121 µg/mL (≈ 221 µM). Also, the concentration in solution in series [2] (Britton Robinson buffer, 37 °C, pH 3.7, aqueous buffer, thermodynamic from solid, nominal pH 3.7, BR buffer, 24-hr timepoint) (solubility at 24 h) was 129 µg/mL (≈ 236 µM). In addition, the solubility classification result in series [2] (all pHs in the physiological range except close to the solubility minimum (between pH 3.2 and pH 4.2), high solubility = above 0.16 mg/mL (40 mg in 250 mL)) was “highly soluble”. In series [2] (pH 1.2-6.8, 37±1° C.), the “difference in solubility between Form I and Form III” value is on record as “no significant difference”.

Source of the values: patent US20240391885A1, “FORMS OF LINERIXIBAT” (GLAXOSMITHKLINE INTELLECTUAL PROPERTY (NO. 2) LIMITED, priority 2020, published 2024).
